In patent US11524950B2, “Treatment of immune-related and inflammatory diseases” (Celgene Corporation, priority 2012, dated 2022):
Where two headings read alike, the source gives them in different places.

What was measured:
IL-6 = assay: LPS-stimulated hPBMC cytokine production: IL-6; format: cell-based; details: Homo sapiens; LPS 1 ng/ml, 18 hours
Procedure: (§1) 50 ml human buffy coat was aliquoted 25 ml each into two 50 ml conical tubes and 25 ml sterile HBSS was added to each conical tube. The tubes were gently mixed by inverting. Fifteen ml of room temperature Ficoll-Paque Plus (GE Healthcare (location); cat #17-1440-02) was aliquoted into four 50 ml conical tubes. Then 25 ml of the Buffy coat/HBSS mixture was layered gently and slowly on top of the Ficoll. The samples were centrifuged at 450 rpm for 35 minutes. The top layered containing plasma was pipetted off and discarded. The interface containing mononuclear cells was transferred into two 50 ml conical tubes. Both conical tubes were filled to total volume of 50 ml with HBSS and centrifuged at 1200 rpm for 10 minutes. The cells were washed again in HBSS and spun at 1000 rpm for 10 minutes. Cell pellet was resuspended with 20 ml RPMI complete medium (RPMI/5% human sera/1× pen/strep/glut) and counted.
(§2) One hundred μl (2×10^6/ml) of hPBMCs were added to each well of a 96 well flat-bottom plate (final cell count=2×10^5/well) and incubated at 37° C. for 1 hour. […] compound was added to each test well and twenty μl medium containing 2.5% DMSO was added to each control well ([DMSO]final=0.25%) and plate was incubated for 1 hour at 37° C. Cells were then stimulated with […] 2.5 ng/ml LPS ([LPS]final=1 ng/ml) and incubated for 18 hours at 37° C.
(§3) 50 μl supernatant from each well was transferred into 3 new round-bottomed 96 well plates and stored at −20° C. for Luminex analysis. Duplicate wells were performed for each sample.
(§4) Supernatant samples were analyzed for cytokines in multiplex format according to the manufacturer's instructions (Millipore, Billerica, Ma 01821) using a Luminex IS100 instrument. IL-12 and GM-CSF analyses were done in a two-plex format using neat supernatants while all other cytokines were done in a multiplex format using supernatants diluted 1:20. Data analysis was performed using Upstate Beadview software. […] The IC50 were performed using GraphPad Prism v5.00. […]

GM-CSF = assay: LPS-stimulated hPBMC cytokine production: GM-CSF; format: cell-based; details: Homo sapiens
Procedure: as §1, §2, §3, §4

MDC = assay: LPS-stimulated hPBMC cytokine production: MDC; format: cell-based; details: Homo sapiens; LPS 1 ng/ml, 18 hours
Procedure: as §1, §2, §3, §4

MIP-1β = assay: LPS-stimulated hPBMC cytokine production: MIP-1β; format: cell-based; details: Homo sapiens; LPS 1 ng/ml, 18 hours
Procedure: as §1, with “Fifteen ml of room temperature Ficoll-Paque Plus (GE Healthcare (location); cat #17-1440-02) was aliquoted into four 50 ml conical tubes.” left out
Cells were then stimulated with […] 2.5 ng/ml LPS ([LPS]final=1 ng/ml) and incubated for 18 hours at 37° C.
as §3
IL-12 and GM-CSF analyses were done in a two-plex format using neat supernatants while all other cytokines were done in a multiplex format using supernatants diluted 1:20. Data analysis was performed using Upstate Beadview software. […] The IC50 were performed using GraphPad Prism v5.00. The data values represent the mean±SEM (standard error of the mean) of n (number of experiments in duplicate).

IL-10 = assay: LPS-stimulated hPBMC cytokine production: IL-10 enhancement; format: cell-based, human; details: at 0.1 μM
Procedure: as §1, §2, §3, §4

MCP-1 = assay: LPS-stimulated hPBMC cytokine production: MCP-1 enhancement; format: cell-based, human; details: at 0.1 μM
Procedure: as §1, §2, §3, §4

[1] = tested on: Human umbilical vascular endothelial cells; assay: Human umbilical vascular endothelial cells proliferation assay; format: cell-based; details: for IC50: Homo sapiens, Endothelial cell
Procedure: Human Umbilical Vascular Endothelial Cells Proliferation Assay: Human umbilical vascular endothelial cells were thawed and grown in EGM2 medium until passage 3 to 6 for all proliferation assays. Human umbilical vascular endothelial cells were trypsinized, washed with 20% FBS/M199 medium and plated with the same medium at 10^4 cells/100 μL per well to 96-well cell culture plates. The plates were incubated overnight at 37° C. to allow cells to adhere. The cells were then starved in 1% FBS/M199 medium for 18 hours after washing with the same medium 3 times. For optimization of the concentration of the growth factors in the HUVEC proliferation assay, 100 μL/well of the 2× serial diluted growth factors, starting at 100 ng/mL, were added to HUVECs in duplicate for 72 hours at 37° C. in a humidified cell culture incubator with 5% CO2. For analysis of test compounds, a serial dilution of the test compounds in 0.4% DMSO/1% FBS/M199 medium in duplicate was made from the 10 mM stock. Fifty microliters per well of the serially diluted test compounds (10, 1.0, 0.1, 0.01, 0.001, 0.0001, 0.00001 μM) were added to the cells for 1 to 2 hours at 37° C. The final DMSO concentration in the cells is 0.1%. Then 50 μL of 4× final concentration of relative growth factors was added to each well in duplicate for 72 hours at 37° C. in a humidified cell culture incubator with 5% CO2. Thymidine incorporation was measured by adding one microcurie of 3H-thymidine (Amersham) in 20 μL medium to each well and incubated at 37° C. in a humidified cell culture incubator with 5% CO2 for 5 to 6 hours. The cells were then trypsinized and harvested onto UniFilter GF/C filter plates (Perkin Elmer) by using the cell harvester (Tomtec). After the plates were air dried, 20 µL/well of Microscint 20 (Packard) was added then the plates were analyzed in TopCount NXT (Packard). Each well was counted for one minute. The experiments were performed in duplicate in each of 3 donors.
The percentage inhibition of cell proliferation, tube formation, migration, and invasion was calculated by subtracting the result for unstimulated DMSO control from test sample results, averaging all replicates, and normalizing to the growth factor-stimulated DMSO control (0% inhibition). The IC50 values were calculated by using GraphPad Prism 5.0.

[2] = LPS 1 ng/ml, 18 hours, read-out: GM-CSF IC50
[3] = read-out: bFGF (10 ng/mL) IC50 Values (μM), bFGF-induced proliferation
[4] = HGF-induced proliferation, read-out: HGF (25 ng/mL) IC50 Values
[5] = VEGF-induced proliferation, read-out: VEGF (25 ng/mL) IC50 Values

SMILES	IC50 (IL-6) [µM]	IC50 (GM-CSF; [2]) [µM]	IC50 (MDC) [µM]	IC50 (MIP-1β) [µM]	IL-10 Mean % of Control (IL-10)	MCP-1 Mean % of Control (MCP-1)	VEGF-, bFGF-, or HGF-induced HUVEC proliferation [1]	IC50 [1, 3] [µM]	IC50 [1, 4] [µM]	IC50 [1, 5] [µM]	IC50 (GM-CSF; 18 h, read-out: GM-CSF IC50 (μM)) [µM]	concentrations with significant enhancement of proliferation ([1]; bFGF-treated HUVECs) [µM]	concentrations with significant enhancement of proliferation ([1]; VEGF-treated HUVECs) [µM]
O=C1CC[C@@H](N2Cc3c(OCc4ccc(CN5CCOCC5)cc4)cccc3C2=O)C(=O)N1 [R-enantiomer, (R)-3-[4-(4-morphlin-4-ylmethylbenzyloxy)-1-oxo-1,3-dihydro-isoindo-2-yl]piperidine-2,6-dione]	0.083	0.039	0.012	> 10	442 % of control	223 % of control	did not inhibit	76	38	> 100	–	–	–
O=C1CCC(N2Cc3c(OCc4ccc(CN5CCOCC5)cc4)cccc3C2=O)C(=O)N1 (racemic) [Racemate, 3-[4-(4-morphlin-4-ylmethylbenzyloxy)-1-oxo-1,3-dihydro-isoindo-2-yl]piperidine-2,6-dione]	0.01	–	0.0026	> 10	371 % of control	208 % of control	did not inhibit	99	24	> 100	0.0092	0.01 to 1	–
O=C1CC[C@H](N2Cc3c(OCc4ccc(CN5CCOCC5)cc4)cccc3C2=O)C(=O)N1 [Test compound, (S)-3-[4-(4-morphlin-4-ylmethylbenzyloxy)-1-oxo-1,3-dihydro-isoindo-2-yl]piperidine-2,6-dione]	0.0038	0.0022	0.0021	> 10	379 % of control	233 % of control	did not inhibit	52	51	> 100	–	–	1 to 10
